In assay [1] the test system is PAO1. As to the kind of experiment: Flow cytometry of PI uptake. Format: cell-based, P. aeruginosa. To be noted: PAO1, 16 μg mL^−1 (4× MIC), PI staining. The method, then: Flow cytometry measurements were carried out to quantify PI uptake at the cellular level.
Bacteria cells were collected from mid-log cultures by centrifugation (7000 rpm, 10 minutes). and washed with PBS twice. Cells were treated with the COE at 4×MIC and incubated for 30 minutes. PI (30 μM, final concentration) was then added and the cells were further incubated for 10 minutes. The suspension was then diluted in PBS to an appropriate cell density and analysed with flow cytometry using an Amnis ImageStreamX Mk II Imaging Flow Cytometer. The collection gate was set using the area vs aspect ratio of the brightfield channel to select for intact cell events only. To select for PI-stained cells, excitation was carried out using a 638 nm laser and the emission was collected in the range of 642-745 nm. Data was processed using IDEAS v6.3.
In general terms: In flow cytometry, cells or beads pass a laser one at a time.

The test system of assay [2] is M. abscesses (ATCC 19977). Nature of the assay: MIC against mycobacterium in Middlebrook 7H9 broth. The class given is cell-based, M. abscessus. As for the experimental part:
We also examined non-tuberculous mycobacteria (NTM). These are opportunistic pathogens that are rising in clinical significance due to their increasing prevalence and treatment difficulty. The membrane of Mycobacterium is inherently a greater antibiotic permeability barrier due to its high lipid content relative to other pathogens and long-tailed mycolic acids that contributed to its high lipophilic character. The antimicrobial activity of the TPP analogues were also evaluated against Mycobacterium in Middlebrook 7H9 broth.

The next assay has as its system A. baumanii (ATCC 17978). Nature of the assay: Minimum bactericidal concentration (MBC). Format: cell-based. The note with it: strain AB; unit printed in b207 only. The method, then: (§1) To study the extent to which TPP-COEs can effectively kill bacteria, bacteria cells treated with DM6P at varying concentrations were plated onto Tryptic Soy Agar (TSA) and the minimum bactericidal concentration (MBC), where complete eradication of the inoculum occurred, was determined (Table 5). MBC values ranged from 2 μg mL^−1 towards MRSA to 8 μg mL^−1 towards PAO1 and stayed within a two to four-fold range of the MIC values for all strains tested.
(§2) Bacteria samples treated with DM6P at varying concentrations from a broth microdilution method in a 96-well plate according to the methods for determining the MIC. Colonies were plated on TSB agar plates with 20 μL inoculation and the plates incubated at 37° C. overnight. […] All measurements were performed in triplicate.

The test system of assay [3] is Methicillin-resistant S. aureus (ATCC BAA1717). As to the kind of experiment: Minimum bactericidal concentration (MBC). The class given is cell-based. To be noted: strain MRSA; unit printed in b207 only. The method, then:
as §1, §2

The test system of assay [4] is E. faecalis OG1RF (ATCC 47077). Nature of the assay: Minimum bactericidal concentration (MBC). The class given is cell-based. The note with it: strain EF; unit printed in b207 only. The method, then:
as §1, §2

The test system of assay [5] is K. pneumoniae (ATCC BAA1705). As to the kind of experiment: Minimum bactericidal concentration (MBC). The class given is cell-based. The note with it: strain CRKP; unit printed in b207 only. As for the experimental part: as §1, §2
The test system of assay [6] is E. coli. K12 (ATCC 10798). As to the kind of experiment: Minimum bactericidal concentration (MBC). Format: cell-based. The note with it: strain EC; unit printed in b207 only. As for the experimental part:
as §1, §2

The test system of assay [7] is P. aeruginosa (ATCC47085). As to the kind of experiment: Minimum bactericidal concentration (MBC). The class given is cell-based. To be noted: strain PA (PAO1); unit printed in b207 only. The method, then: as §1, §2
The test system of assay [8] is PAO1. As to the kind of experiment: Propidium iodide influx assay. The class given is cell-based, P. aeruginosa. The note with it: PAO1, 2 to 8 μg mL^−1 (half to twice the MIC). From the text:
Another hallmark of cytoplasmic membrane damage is an enhanced permeability towards small molecules. Propidium iodide (PI) is a membrane-impermeant organic dye that can be used to study potential mechanisms of action of antibiotics due to its enhanced fluorescence intensity upon binding to intracellular DNA. Treatment with molecules that cause membrane perturbations enable rapid influx of the dye, resulting in an increase in fluorescence emission that can be monitored over time. […] This difference hints at two plausible mechanisms of action that are concentration dependent. Similar observations have been made for tobramycin, where a protein inhibition mode of action at lower concentrations (<4 μg mL^−1) is supplanted by disruption of the outer membrane at higher concentrations (8 μg mL^−1).
The assay was performed according to a modified reported protocol.^4 Briefly, the corresponding bacteria was collected from mid-log cultures by centrifugation (7000 rpm, 10 minutes) and washed thrice with PBS. The pellet was then resuspended in the same buffer and diluted to an optical density of 2 by extrapolation. […] Fluorescence intensity was measured over time in a plate reader with an excitation wavelength of 525 nm and emission wavelength of 620 nm. Fluorescence signals were measured every 30 seconds and carried out in triplicate.

The subject of the next assay is PA. Nature of the assay: MIC in physiological-mimicking environments (MHB). The class given is cell-based, P. aeruginosa. From the text:
The complexities of the physiological environment often influence drug activity, particularly when cations in solution are implicated in their oligomerization-dependent mechanisms of action, such as for daptomycin. Binding of free drug to plasma proteins effectively reduces the available free concentration of the drug capable of killing bacteria, resulting in lower observable activity. We tested MIC values of DM4P and DM6P in the presence of human serum albumin (40 g L^−1) and high salt concentrations (Table 4). Under these conditions, the antimicrobial activity was minimally affected by these environmental factors, with MICs remaining within a 2-fold level.

For another assay, the system named is P. aeruginosa. As to the kind of experiment: Resistance development by serial passaging at 0.5× MIC. Format: cell-based. As for the experimental part:
The non-specific action of membrane-active antibiotics lends itself to minimal development of resistance development due to the large metabolic burden involved, unlike traditional antibiotics with a well-defined enzymatic target. Based on this premise, we passaged bacteria incubated with DM6P, or ciprofloxacin (control), at 0.5× MIC to investigate the adaptation of bacteria towards external antibiotic stress. As a control, treatment of MRSA with ciprofloxacin gave rise to antibiotic-resistant mutants within 4 passages, see FIG. 4a. […] Combined with its broad spectrum of activity, this feature opens opportunities for the use of COE antimicrobial agents to address polymicrobial infections with a lower rate of emerging antibiotic resistance.

A word on the MBC: it is the smallest concentration meeting the test's criterion for killing. A low value points to greater bactericidal potency.

As for `COc1cc(/C=C/c2ccc(OCCCCCC[P+](c3ccccc3)(c3ccccc3)c3ccccc3)c(OC)c2)ccc1OCCCCCC[P+](c1ccccc1)(c1ccccc1)c1ccccc1.[I-].[I-]` [DM6P], the “PI uptake at the cellular level” value in the assay on PAO1 [1] is on record as “near quantitative cell staining with PI”. Further, in assay [2], the “MIC M. abscesses” value was found to be 8 µg/mL. Moreover, the MBC against A. baumanii (ATCC 17978) turned out to be 32 µg/mL; in [3], 2 µg/mL; in assay [4] it was 4 µg/mL; in assay [5], 16 µg/mL; in assay [6], 2 µg/mL; in assay [7] it was 8 µg/mL. Moreover, the PI influx result in the assay with PAO1 [8] is given as “increase in PI influx appeared to be independent of concentration”. Besides, in the assay with PA (CaCl2 1 mM), the “MIC CaCl2” value worked out at 4 µg/mL. The “MIC MgCl2” value in the assay on PA (MgCl2 1.25mM) is 4 µg/mL. For the same compound, the “MIC NaCl” value against PA (NaCl 300 mM) was found to be 8 µg/mL. Also, the “MIC HSA” value against PA (human serum albumin 40 g L^−1) was determined as 8 µg/mL. In the assay with PA (no additive), the “MIC —” value came to 4 µg/mL. Moreover, the resistance development result with P. aeruginosa is “did not induce any observable resistant mutants”.
